The text below walks through data of patent US12642799B2, “Composition and method for treating COVID-19” (University of South Florida, priority 2021, dated 2026).

Each structure is given as a SMILES string. Read-outs that look alike come from different tables or passages of the source.

In assay [1] the test system is IL-6, IL-1β, and TNFα. Type of assay: cell-based.
For assay [2], the system named is SARS CoV-2 infected Caco2 cells. The format is cell-based.
The test system of assay [3] is GFP-CoV-2 infected mature adipocytes. Type of assay: cell-based, SARS CoV-2. To be noted: for reduction in infection by cytoimmunochemical staining (SARS CoV-2/ACE2): mature adipocytes, FIG. 3C.
Assay [4] relates to CoV-2 infection. Type of assay: in vivo, human. To be noted: obese Type 2 diabetic patient, oral, retested twice over several weeks.
The subject of assay [5] is serum inflammatory markers and anti-inflammatory cytokines. The conditions noted are these: Type 2 diabetic patients; cited from earlier work.

In the case of `CN(C)C(=N)N=C(N)N` [metformin], in assay [1], the “expression of IL-1β (fold change)” value is recorded as “decreasing expression”, the “expression of IL-6 (fold change)” value was “decreasing expression” and the “expression of TNFα (fold change)” value was “decreasing expression”. For the same molecule, in assay [2], the “expression of SARS CoV-2 N protein (fold change)” value is given as “decreasing expression” and the “expression of SARS CoV-2 S protein (fold change)” value is recorded as “decreasing expression”. In assay [3], the “inhibition of viral infection (integrated density of GFP expression)” value is on record as “inhibited viral infection” and the “reduction in infection by cytoimmunochemical staining (SARS CoV-2/ACE2)” value is on record as “reduction in infection”.
On to `N[C@@H](CC(=O)N1CCn2c(nnc2C(F)(F)F)C1)Cc1cc(F)c(F)cc1F` [sitagliptin], for which, in assay [4], the “virus test after treatment” value is “tests negative for the virus”. Further, in assay [1], the “expression of IL-1β (fold change)” value is reported as “decreasing expression”, the “expression of IL-6 (fold change)” value is “decreasing expression” and the “expression of TNFα (fold change)” value is on record as “decreasing expression”. In assay [2], the “expression of SARS CoV-2 N protein (fold change)” value is “larger decrease than metformin” and the “expression of SARS CoV-2 S protein (fold change)” value was “larger decrease than metformin”. Further, in assay [5], the anti-inflammatory cytokines entry is “increased” and the “serum levels of inflammatory markers” value is on record as “significantly decreased”. The “inhibition of viral infection (integrated density of GFP expression)” value in assay [3] ([…], metformin 10 mM, sitagliptin 20 uM) is reported as “highest reduction”. Also, the “reduction in infection by cytoimmunochemical staining (SARS CoV-2/ACE2)” value in assay [3] is reported as “highest reduction”.
